Experimental data taken from paper PMC12261228 (ACS Pharmacology & Translational Science, 2025).
“Also recorded” adds a separate entry of the source. Where two headings read alike, the source gives them in different places.

Assays:
BJ = assay: MTS cytotoxicity assay, 72 h; assay type: cell-based; settings: Homo sapiens, read-out: IC50 BJ
K562 = assay: MTS cytotoxicity assay, 72 h; assay type: cell-based; settings: Homo sapiens, K562, 72 h, read-out: IC50 K562
CCRF-CEM = assay: MTS cytotoxicity assay, 72 h; assay type: cell-based; settings: Homo sapiens, CCRF-CEM, 72 h, read-out: IC50 CCRF-CEM, MTS assay, 3-day incubation, mean ± SD of 3 experiments
CCRF-CEM lymphoblasts = assay: FACS analysis of cell cycle, apoptosis, mitosis and polyploidy; settings: for Mitosis: phospho-Histone (Ser10); for Apoptosis: sub-G0/G1 DNA content, % of positive cells
MRC-5 = assay: MTS cytotoxicity assay, 72 h; assay type: cell-based; settings: Homo sapiens, MRC5, 72 h, read-out: IC50 MRC-5
[1] = test system: microtubules in U2OS cells; assay: Immunofluorescence of microtubule organization; assay type: cell-based, human; settings: 10 μM, 15 h
Method: DMSO at appropriate dilution served as control.
Immunofluorescence microscopy on formaldehyde-fixed, Triton X-100 extracted cells (F/Tx) was performed as previously described. Extraction and fixation steps were carried out in a microtubule stabilizing buffer consisting of 0.1 M KMes, 2 mM EGTA, 2 mM MgCl2, 4% polyethylene glycol 6000, pH 6.9. Cells were fixed for 30 min in 3% formaldehyde before extraction for 4 min with 0.5% Triton X-100 at 37 °C. Mouse monoclonal antibody TU-01 (IgG1) directed to α-tubulin , in the form of hybridoma spent culture medium was diluted 1:10. The DyLight 549-conjugated antimouse antibody (Jackson Immunoresearch Laboratories, West Grove, PA, USA) was diluted 1:500. Samples were mounted in MOWIOL 4–88 (Calbiochem, San Diego, CA, USA) supplemented with 4,6-diamidino-2-phenylindole (DAPI; Sigma-Aldrich, St. Louis, MO, USA) and examined with an Olympus AX-70 Provis microscope (Olympus, Hamburg, Germany) equipped with a 60×/1.0 water objective.

K562-TAX = assay: MTS cytotoxicity assay, 72 h; assay type: cell-based; settings: read-out: IC50 K562-TAX
CEM-DNR = assay: MTS cytotoxicity assay, 72 h; assay type: cell-based; settings: Homo sapiens, read-out: IC50 CEM-DNR
HUVEC = assay: MTS cytotoxicity assay, 72 h; assay type: cell-based; settings: Homo sapiens, 3-day incubation, mean ± SD
HCT116p53–/– = assay: MTS cytotoxicity assay, 72 h; assay type: cell-based; settings: read-out: IC50 HCT116p53–/–
HCT116 = assay: MTS cytotoxicity assay, 72 h; assay type: cell-based; settings: Homo sapiens, HCT-116, 72 h, read-out: IC50 HCT116
panel of cell lines [2] = test system: panel of cell lines
U2OS = assay: MTS cytotoxicity assay, 72 h; assay type: cell-based, human
panel of cell lines [3] = assay: cells; settings: read-out: IC50 values, cancer cell lines
[4] = Homo sapiens, U2OS, 72 h, read-out: IC50 U2OS, MTS assay, 3-day incubation, mean ± SD
[5] = read-out: IC50 U2OS, MTS assay, 3-day incubation, mean ± SD

Structure (SMILES) | IC50 (BJ) | IC50 (K562) | IC50 (CCRF-CEM) | G0/G1 (CCRF-CEM lymphoblasts; 1×IC50, 24 h) | G2/M (CCRF-CEM lymphoblasts; 1×IC50, 24 h) | Polyploid cells (CCRF-CEM lymphoblasts; 1×IC50, 24 h) | S (CCRF-CEM lymphoblasts; 1×IC50, 24 h) | Mitosis (CCRF-CEM lymphoblasts; 1×IC50, 24 h) | Apoptosis (CCRF-CEM lymphoblasts; 1×IC50, 24 h) | G0/G1 (CCRF-CEM lymphoblasts; 5×IC50, 24 h) | Polyploid cells (CCRF-CEM lymphoblasts; 5×IC50, 24 h) | S (CCRF-CEM lymphoblasts; 5×IC50, 24 h) | Mitosis (CCRF-CEM lymphoblasts; 5×IC50, 24 h) | Apoptosis (CCRF-CEM lymphoblasts; 5×IC50, 24 h) | IC50 (MRC-5) | effect on microtubules (in words) [1] | IC50 (K562-TAX) | IC50 (HUVEC) | IC50 (HCT116p53–/–) | IC50 (HCT116) | other results
COc1cc2c(c(OC)c1OC)-c1ccc(OC)c(=O)cc1[C@@H](NC(=O)CCC1=C3C(C)=CC(C)=[N+]3[B-](F)(F)n3c(C)cc(C)c31)CC2 [CB1] | 8350 ± 419 nM | 450 ± 54 nM | 400 ± 18 nM | 36.69% | 38.6% | 17.25% | 24.71% | 7.96% | 5.32% | 50.26% | 19.14% | 1.72% | 17.85% | 11.73% | 5690 ± 639 nM | completely disrupted microtubules | 1470 ± 361 nM | 670 ± 33 nM | 580 ± 63 nM | 500 ± 32 nM | G2/M (CCRF-CEM lymphoblasts; 5×IC50, 24 h): 48.02%; IC50 (CEM-DNR): 2070 ± 212 nM; RI (resistance index) (panel of cell lines [2]): 4.16; SI (selectivity index) (panel of cell lines [2]): 13.66
COc1cc2c(c(OC)c1OC)-c1ccc(OC)c(=O)cc1[C@@H](n1cc(CCCC3=C4C(C)=CC(C)=[N+]4[B-](F)(F)n4c(C)cc(C)c43)nn1)CC2 [CB4] | > 50000 nM | 88 ± 13 nM | 20 ± 0.9 nM | 41.19% | 27.75% | 19.29% | 31.06% | 2.76% | 3.04% | 5.49% | 23.72% | 1.83% | 64.43% | 12.24% | > 50000 nM | microtubule remnants were detectable; also recorded: perinuclear bundles were observed; also recorded: disruption of microtubule organization and generation of perinuclear microtubule bundles |  | < 12.2 nM | 120 ± 12 nM | 100 ± 4 nM | cytotoxic activity across the cell line panel (in words) (panel of cell lines [2]): changed only slightly
COc1cc2c(c(OC)c1OC)-c1ccc(OC)c(=O)cc1[C@@H](n1cc(CCCCCCCCC3=C4C(C)=CC(C)=[N+]4[B-](F)(F)n4c(C)cc(C)c43)nn1)CC2 [CB5] | > 50000 nM | 500 ± 122 nM | 420 ± 14 nM | 11.02% | 85.47% | 24.32% | 3.51% | 42.49% | 9.64% | 5.27% | 26.07% | 0.77% | 60.70% | 10.96% | > 50000 nM | completely disrupted microtubules | 900 ± 26 nM | 450 ± 12 nM | 770 ± 63 nM | 640 ± 65 nM | IC50 (U2OS; [4]): < 2000 nM; IC50 (U2OS; [5]): 1040 ± 141 nM; IC50 (CEM-DNR): 1390 ± 139 nM; RI (resistance index) (panel of cell lines [2]): 2.49; SI (selectivity index) (panel of cell lines [2]): >74.18
COc1cc(C2=C3C(C)=CC(C)=[N+]3[B-](F)(F)n3c(C)cc(C)c32)ccc1OCc1cn([C@H]2CCc3cc(OC)c(OC)c(OC)c3-c3ccc(OC)c(=O)cc32)nn1 [CB6] | > 50000 nM | 26 ± 1 nM | 140 ± 10 nM | 12.32% | 55.58% | 23.13% | 32.1% | 29.41% | 7.55% | 3.72% | 24.76% | 1.88% | 61.11% | 14.32% | > 50000 nM | microtubule remnants were detectable |  | < 12.2 nM | 380 ± 57 nM | 430 ± 32.5 nM | cytotoxic activity across the cell line panel (in words) (panel of cell lines [2]): changed only slightly
COc1cc2c(c(OC)c1OC)-c1ccc(OC)c(=O)cc1[C@@H](n1cc(CCCC3=C4C(C)=CC(C)=[N+]4[B-](F)(F)n4c(C)cc(C)c43)[n+](C)n1)CC2 [CB7] | > 50000 nM | 770 ± 22.4 nM | 840 ± 58 nM | 26.66% | 45.89% | 21.60% | 27.45% | 19.77% | 13.02% | 6.62% | 23.77% | 4.54% | 68.32% | 14.67% | > 50000 nM | microtubule remnants were detectable | 620 ± 84 nM | 1400 ± 104 nM | 1430 ± 162 nM | 1510 ± 330 nM | IC50 (U2OS; [4]): < 2000 nM; IC50 (U2OS; [5]): 1960 ± 96 nM; G2/M (CCRF-CEM lymphoblasts; 5×IC50, 24 h): 88.84%; IC50 (CEM-DNR): 1340 ± 229 nM; RI (resistance index) (panel of cell lines [2]): 1.22; SI (selectivity index) (panel of cell lines [2]): >38.40
COc1cc2c(c(OC)c1OC)-c1ccc(N(C)CCCCC3=C4C(C)=CC(C)=[N+]4[B-](F)(F)n4c(C)cc(C)c43)c(=O)cc1[C@@H](NC(C)=O)CC2 [CB11] | > 50000 nM | 1850 ± 204 nM | 2500 ± 567 nM | 35.98% | 30.38% | 13.64% | 33.64% | 4.83% | 5.26% | 10.48% | 24.88% | 10.23% | 59.86% | 16.42% | > 50000 nM |  | 5180 ± 198 nM | 5520 ± 290 nM | 5520 ± 762 nM | 4930 ± 729 nM | IC50 (U2OS; [4]): 4620 ± 1230 nM; G2/M (CCRF-CEM lymphoblasts; 5×IC50, 24 h): 79.29%; IC50 (CEM-DNR): 5490 ± 935 nM; RI (resistance index) (panel of cell lines [2]): 2.45; SI (selectivity index) (panel of cell lines [2]): >12.87; IC50 (panel of cell lines [3]): 2500 to 9000 nM
